Measurements: PMC5589576, “Targeting the apoptotic Mcl-1-PUMA interface with a dual-acting compound” (Oncotarget, 2017)

Experiments:
[1] = tested on: DLD-1 cells infected with Ad-PUMA; assay: PUMA-dependent apoptosis of DLD-1 cells infected with Ad-PUMA (Caspase-Glo 3/7); type: cell-based; details: Homo sapiens, DLD-1, Ad-PUMA, 48h
Procedure: (§1) Tests of candidate compounds on blocking Synthesis of compound 8
(§2) PUMA-dependent apoptosis To a suspension of rhodanine (7.57 mmol) in dry Construction and validation of recombinant ethanol (10 mL), 4-Biphentlaldehyde (11.3 mmol), N-(2-Adenovirus By taking pHBAd-MCMV-GFP (Hanbio) as hydroxyethyl) piperazine (11.3 mmol), and glacial acetic vector, the construction and purification of Adenoviruses acid (0.75 mmol) were added and the resulting mixture overexpressing PUMA and PUMA-∆BH3 (PUMA was further stirred under reflux for 5-6 h. The reaction was without the BH3 domain) were performed according to completed and then cooled in an ice bath. The precipitated former reports. […]
(§3) various multiplicity of infection (MOI, 6 points, from 0 The crystal structure of Comp8 was solved by X-ray to 160) in 96-well, white, flat-bottom plates (Nunc). […] Shake gently and record the luminescence of each well on TECAN Infinite M1000 S.Y.Z., H.C., J.N.L and J.Y.L. conceived the project.
(§4) Microplate Spectrophotometer. The data were analyzed J.Y.L. and Z.T. designed the experiment. J.Y.L., Z.T., by Graphpad Prism and suitable MOI of Ad-PUMA for N.Z., X.Y.L. and C.Y.L. performed the experiments and following cell infection can be determined in this process. prepared the manuscript. […]
(§5) added to make the final compound concentrations range 2. […] The results were detected by flexible docking. […]

[2] = tested on: SMMC-7721 cells; assay: MTT test on suppressing cancer cells, SMMC-7721; type: cell-based; details: Homo sapiens, 24h
Procedure: (§6) (Nunc). To check the interference effects of candidate membranes. […]
(§7) Microplate Spectrophotometer with excitation wavelength (Boster). being 432 nm. The IC50 calculations were performed by Graphpad Prism 5 (Graphpad software, Inc.). Key residues discovery
(§8) Tests of candidate compounds on suppressing In the present study, key residues involved in the […]
(§9) by using site-directed mutagenesis and FPA competition
(§10) Cell lines including A2780, MCF-7 and SMMC- assays in combination. According to the results of pairwise 7721 were cultured to the logarithmic growth phase per-residue free energy decomposition, the residues in 3 ml complete media (RPMI1640 plus 10%FBS), contributing a lot to the binding of PUMA/Comp8 to 4 Mcl-1 were subjected to site-directed mutagenesis. By respectively. After adjusting their concentrations to 5×10 reference to the primers listed in Supplementary Table5, cells/ml with complete media, these cell lines were plated overlapping extension PCR was conducted to realize into 96-well, transparent, flat-bottom plates (150 μl/well), site-directed mutagenesis. After verified by gene each point was prepared in three replicates. The density sequencing, the individually mutated PCR products were of cultured cell lines was evaluated by MTT tests. When cloned into the expressing vector pET-43.1a (+). […]

[3] = tested on: A2780 cells; assay: MTT test on suppressing cancer cells, A2780; type: cell-based; details: Homo sapiens, 24h
Procedure: as §6, §7, §8, §9, §10

[4] = tested on: A2780, MCF-7 and SMMC-7721; assay: MTT test, three cancer cell lines together; type: cell-based; details: on A2780, MCF-7 and SMMC-7721, range over the three lines
Procedure: as §6, §7, §8, §9, §10

[5] = tested on: MCF-7 cells; assay: MTT test on suppressing cancer cells, MCF-7; type: cell-based; details: Homo sapiens, MCF7, 24h
Procedure: as §6, §7, §8, §9, §10

[6] = tested on: Caspase-3, Cyto-c and Bcl-2 in A2780, MCF-7 and SMMC-7721 cells; assay: Western blot analysis of apoptotic marker proteins; type: cell-based
Procedure: (§11) BH3 peptide of Mcl-1 (FITC-Mcl-BH3, FITC-AHx-Western blot analysis […]
-NH2) was synthesized […]
and used as fluorescence probe in the FPA competition A2780, MCF-7 and SMMC-7721 cells treated with assays. All assays were performed in the assay and without Comp8 were harvested, washed by precooled buffer (pH 7.4) composed of 20 mM Tris, 50 mM NaCl, PBS and split by RIPA lysis buffer (Thermo) containing 3 mM DTT and 2% DMSO. The FPA competition assays PMSF (protease inhibitor). Quantified protein samples were carried out in the 96-well, black, flat-bottom plates were separated by SDS-PAGE and then transferred to NC (Nunc). To check the interference effects of candidate membranes. After being blocked for 1h, all membranes compounds on the interaction between Mcl-1 and FITC- were incubated with primary antibodies against protein Mcl-BH3, solutions containing 250 nM Mcl-1 and 250 nM Caspase (1:500, Abcam), Cyto-c (1:500, Abcam) and fluorescence probes were titrated with 250 μM selected Bcl-2 (1:500, Abcam) at 4℃ overnight. […] The emission fluorescence changes were antibodies (1:10000, Jackson) for 1 h at 37°C, the signals recorded from 480 to 540 nm by TECAN Infinite M1000 were detected with ECL western blot detection system Microplate Spectrophotometer with excitation wavelength (Boster). being 432 nm. […]

[7] = target: T1, Mcl-1F251A (Homo sapiens, UniProt Q07820, F270A); assay: FPA competition assay, mutant Mcl-1 F251A; type: binding
T1 construct: implied by Ni2+-NTA purification from pET-43.1a(+)); made in house; host or cells: E. coli BL21
T1 sequence (Q07820 172-327 F270A): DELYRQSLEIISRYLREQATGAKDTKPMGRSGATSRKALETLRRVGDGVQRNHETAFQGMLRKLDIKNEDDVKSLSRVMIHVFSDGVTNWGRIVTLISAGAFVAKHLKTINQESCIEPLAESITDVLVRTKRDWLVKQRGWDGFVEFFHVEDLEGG
Procedure: (§12) 1 protein was induced by 0.6 mM IPTG for 20 h in the Flow cytometry condition of 20°C, 160 rpm. The strains were harvested by centrifugation (6000 rpm, 10 min, 4°C) and broken Tested cells (A2780, MCF-7 and SMMC-7721) by ultrasonication (10 s operation and 10 s stop, 5 min). were plated in 6-well plates (1×10^5 cells/well) and treated […]
(§13) All cells were detached by trypsin and washed manufacturer ’s instructions. The purified Mcl-1 was (three times) by precooled PBS. The resuspended cells analyzed by 15% SDS-PAGE and dialyzed against 10 mM were stained by Annexin V-FITC and PI in sequence PBS (pH 7.4) before being stored under −80°C for later use. before being detected by flow cytometry.
(§14) FPA competition assays The FITC labelled
as §11
(§15) and used as fluorescence probe in the FPA competition A2780, MCF-7 and SMMC-7721 cells treated with assays. All assays were performed in the assay and without Comp8 were harvested, washed by precooled

[8] = target: T2, Mcl-1H205A (Homo sapiens, UniProt Q07820, H224A); assay: FPA competition assay, mutant Mcl-1 H205A; type: binding
T2 construct: implied by Ni2+-NTA purification from pET-43.1a(+)); made in house; host or cells: E. coli BL21
T2 sequence (Q07820 172-327 H224A): as the sequence (Q07820 172-327 F270A) above, with H53A, A99F counted along it
Procedure: as §12, §13, §14, §11, §15

[9] = tested on: HUVECs infected with Ad-PUMA; assay: PUMA-induced apoptosis of HUVECs infected with Ad-PUMA (Caspase-Glo 3/7); type: cell-based; details: low-dose, less than 12.5 μM, 48h
Procedure: as §1, §2, §3, §4, §5

[10] = target: T3, Mcl-1D237A (Homo sapiens, UniProt Q07820, D256A); assay: FPA competition assay, mutant Mcl-1 D237A; type: binding
T3 construct: implied by Ni2+-NTA purification from pET-43.1a(+)); made in house; host or cells: E. coli BL21
T3 sequence (Q07820 172-327 D256A): as the sequence (Q07820 172-327 F270A) above, with D85A, A99F counted along it
Procedure: as §12, §13, §14, §11, §15

[11] = tested on: A2780, MCF-7 and SMMC-7721; assay: Flow cytometry detection of apoptosis (Annexin V-FITC/PI); type: cell-based; details: 48h; 47.42 μM for A2780 and MCF-7, 27.80 μM for SMMC-7721
Procedure: After cleared by centrifugation (12000 rpm, 30 min) and with/without the given concentration of Comp8 for 48h filtration (0.44 μm filter membrane), the lysate was purified (47.42 μM for A2780 and MCF-7, 27.80 μM for SMMC-by Ni2+-NTA sepharose gel column (7Sea) following the 7721). All cells were detached by trypsin and washed manufacturer ’s instructions. The purified Mcl-1 was (three times) by precooled PBS. The resuspended cells analyzed by 15% SDS-PAGE and dialyzed against 10 mM were stained by Annexin V-FITC and PI in sequence PBS (pH 7.4) before being stored under −80°C for later use. before being detected by flow cytometry. […]
as §6, §7, §8, §9
Cell lines including A2780, MCF-7 and SMMC- assays in combination. According to the results of pairwise 7721 were cultured to the logarithmic growth phase per-residue free energy decomposition, the residues in 3 ml complete media (RPMI1640 plus 10%FBS), contributing a lot to the binding of PUMA/Comp8 to 4 Mcl-1 were subjected to site-directed mutagenesis. […]

[12] = target: T4, Mcl-1R244A (Homo sapiens, UniProt Q07820, R263A); assay: FPA competition assay, mutant Mcl-1 R244A; type: binding
T4 construct: implied by Ni2+-NTA purification from pET-43.1a(+)); made in house; host or cells: E. coli BL21
T4 sequence (Q07820 172-327 R263A): as the sequence (Q07820 172-327 F270A) above, with R92A, A99F counted along it
Procedure: as §12, §13, §14, §11, §15

[13] = target: T5, Mcl-1WT (Homo sapiens, UniProt Q07820); assay: FPA competition assay, wildtype Mcl-1; type: binding; details: FITC-Mcl-BH3 probe
T5 construct: implied by Ni2+-NTA purification from pET-43.1a(+)); made in house; host or cells: E. coli BL21
T5 sequence (Q07820 172-327): as the sequence (Q07820 172-327 F270A) above, with A99F counted along it

[14] = target: T6, Mcl-1N241A (Homo sapiens, UniProt Q07820, N260A); assay: FPA competition assay, mutant Mcl-1 N241A; type: binding
T6 construct: implied by Ni2+-NTA purification from pET-43.1a(+)); made in house; host or cells: E. coli BL21
T6 sequence (Q07820 172-327 N260A): as the sequence (Q07820 172-327 F270A) above, with N89A, A99F counted along it
Procedure: as §12, §13, §14, §11, §15

[15] = target: Mcl-1; details: known Mcl-1 inhibitor; cited from earlier work

CC1(C)CCC(c2ccc(Cl)cc2)=C(CN2CCN(c3ccc(C(=O)NS(=O)(=O)c4ccc(N[C@H](CCN5CCOCC5)CSc5ccccc5)c(S(=O)(=O)C(F)(F)F)c4)cc3)CC2)C1 [ABT-263, reference compound]
EC50 ([1]; read-out: EC50 (action on apoptosis)): 2.75 ± 0.24 µM | IC50 [2]: 29.5 ± 1.36 µM | IC50 [3]: 21.8 ± 1.85 µM | IC50 [4]: 20 to 50 µM | IC50 [5]: 32 ± 3.48 µM

O=C1N=C(N2CCN(CCO)CC2)S/C1=C\c1ccc(-c2ccccc2)cc1 [Comp8]
IC50 ([1]; read-out: IC50 (inhibition of PUMA-dependent apoptosis)): 38.9 ± 0.91 µM | changes of three apoptosis indicators (WB) [6]: fitted well with the characteristics of apoptosis | Ki [7]: 0.66 ± 0.13 µM | Ki [8]: 1.24 ± 0.35 µM | effect on PUMA-induced apoptosis of HUVECs [9]: inhibitory effect | IC50 [2]: 44.2 ± 2.22 µM | Ki [10]: 1.98 ± 0.31 µM | apoptotic cells (FCM) [11]: substantial increase of apoptotic cells | IC50 [3]: 47.6 ± 2.99 µM | Ki [12]: 3.52 ± 0.59 µM | IC50 [4]: 20 to 50 µM | Ki [13]: 0.3 ± 0.04 µM | IC50 [5]: 44.2 ± 2.3 µM | Ki [14]: 1.95 ± 0.45 µM

O=C(O)CSc1cc(NS(=O)(=O)c2ccc(Br)cc2)c2ccccc2c1O [UMI-77]
Ki [15]: 0.49 µM
